# Assay results reported in patent publication US20200299783A1 (Board of Regents, The University of Texas System, priority 2019, published 2020).
# Entries after “also recorded” stand apart in the source; their conditions may differ.
# Experiments:
# [1] = tested on: ibrutinib-resistant MCL cell lines Maver-1 and Z-138; test: ROS levels by flow cytometry, ibrutinib-resistant MCL cell lines; type: cell-based, human
# Experimental: (§1) Mitochondria membrane potential, mitochondria mass, ROS, and apoptosis analysis. MCL cells were seeded and cultured overnight before treatment to reach log phase. Respective cell lines were plated at 2×10^6 cells/well in 6-well plates in phenol-red and pyruvate-free DMEM assay medium containing 5 mM glucose (Sigma), 2 mM GlutaMAX (Gibco, ThermoFisher Scientific), and 5% dialyzed FCS (Gibco). Vehicle, IACS-0107059 (20 nM), or (1-5 μM) BPTES was added and replenished every day until the indicated time points. ROS and mitochondria membrane potential were evaluated 24 hours after treatment. […] TMRE dye fluorescence retained in the cells was detected by flow cytometry with excitation and emission of 548/574 nm. Data were analyzed with NovoExpress (ACEA Biosciences, San Diego, Calif., USA) or FlowJo10 (Tree Star, Ashland, Oreg., USA). To measure ROS levels, treated cells were harvested, stained with 0.5 mM CM-H2DCF-DA (C6827, Molecular Probes, Invitrogen) in PBS for 30 min at 37° C., washed twice with PBS, and analyzed in a flow cytometer (FACS Caliber, BD Biosciences) by recording the green fluorescence of oxidized DCF. The mean fluorescence of 10,000 analyzed cells (corrected for auto fluorescence) was taken as a readout for the intracellular ROS load.
# [2] = tested on: Z-138 and Maver-1 MCL cell lines; test: Immunoblotting of cleaved Caspase-7 and PARP; type: cell-based, human; conditions: 20 nM IACS-010759 and/or 5 μM BPTES for 72 hours; FIG. 5G
# Experimental: Cells were cultured with single agent or combination therapy in the presence or absence of caspase inhibitors. Cells were harvested, washed twice with cold PBS, and lysed with lysis buffer (Cell Signaling, Danvers, Mass., USA). Cell lysates were kept on ice for 30 min and centrifuged at 13,000 g for 10 min at 4° C. For the detection of cytosolic cytochrome c, the Cytosol Fractionation Kit (BioVision, Milpitas, Calif., USA) was utilized to acquire cytosolic fractions according to the manufacturer's instructions. Supernatants were collected, and the protein content of each fraction was determined using a Bio-Rad Bradford assay (Bio-Rad, Hercules, Calif., USA). Samples were boiled in loading buffer and separated by 10% SDS-PAGE. After electrophoresis, the proteins were transferred onto a nitrocellulose membrane (Bio-Rad), which was incubated with blocking solution (5% nonfat dry milk in PBS containing 0.05% Tween-20) for 2 h and immunoblotted with SLC16A1 (Novus, St. Louis, Mo., USA), SLC1A5, BTK, and p16INK4a, and GAPDH (Cell Signaling, Danvers, Mass., USA) antibodies. The membrane was finally visualized by incubating the membrane with a chemiluminescence Western blot kit (Pierce Biotechnology, Rockford, Ill., USA).
# [3] = tested on: ibrutinib-resistant Z-138 MCL cells; test: Apoptosis assay (Annexin-V/PI), Z-138; type: cell-based, human; conditions: 72 hours, 20 nM IACS-010759 and/or 5 μM BPTES, FIGS. 5F & 11E
# Experimental: (§2) Apoptosis assays. Annexin V-binding assay was used to detect the induction of apoptosis. Cells were seeded in 48-well plates with single agent or combination therapy for various times, or with different concentrations for 48 hours. To quantify the percentages of cells undergoing apoptosis, Annexin V-FITC was used. Briefly, cells were washed twice with cold PBS and then suspended in binding buffer at a concentration of 1×10^6 cells/mL. After incubation, 100 μL of the solution was transferred to a 5-mL tube, to which 5 μL of Annexin V-FITC and 5 μL of PI are added. The tube was gently vortexed and incubated for 15 min at room temperature in dark. At the end of the incubation, 300 μL of binding buffer was added. Flow cytometric analysis was performed immediately with a Novocyte Flow Cytometer (ACEA Biosciences, San Diego, Calif., USA). Data were analyzed with NovoExpress (ACEA Biosciences, San Diego, Calif., USA) or FlowJo10 (Tree Star, Ashland, Oreg., USA).
# [4] = tested on: ibrutinib-resistant Maver-1 MCL cells; test: Apoptosis assay (Annexin-V/PI), Maver-1; type: cell-based, human; conditions: 72 hours, 20 nM IACS-010759 and/or 5 μM BPTES, FIGS. 5F & 11E
# Experimental: as §2
# [5] = tested on: ibrutinib-resistant MCL PDX
# Experimental: Histopathological analysis. Excised tissues from patients and PDX mice were fixed in 10% formalin solution, processed by standard methods, embedded in paraffin, sectioned at 5 μm, and stained with H&E. For immunohistochemical (IHC) evaluation, the tissues are stained with an antibody against human anti-CD20 (Dako, Glostrup, Denmark), counterstained with Harris hematoxylin and examined by standard light microscopy. Samples were analyzed using an Olympus BX51TF microscope equipped with UPlan FL 40×/0.75 and 20×/0.50 objective lenses (Olympus, Melville, N.Y., USA).
# [6] = tested on: ibrutinib-resistant MCL cell lines (Maver-1 and Z-138) versus ibrutinib-sensitive (JeKo-1 and Mino); test: Glutamine uptake in MCL cell lines; type: cell-based, human; conditions: 20 nM for 24 hours; resistant compared with sensitive cells; FIG. 11D
# Experimental: (§3) MCL cell lines were seeded at 1-2×10^6 cells/well in triplicate in six-well plates and incubated overnight. Next, the media were replaced with 3 mL complete RPMI-1640 medium with or without inhibitors. […] and analyzed for their glucose, glutamine and lactate content using the Glucose, Glutamine and Lactate Colorimetric Assay Kits (BioVision), respectively, according to the manufacturer's instructions. Glucose or glutamine consumption was extrapolated by subtracting the measured glucose concentrations in the media from the initial concentrations (11.1 mM glucose; 2 mM glutamine). Intracellular ATP contents from above treated cells was determined using ATP Colorimetric Assay Kit (Biovision) as outlined in the manufacturer's protocol. […]
# [7] = tested on: ibrutinib-sensitive MCL cell lines; test: ROS levels by flow cytometry, ibrutinib-sensitive MCL cell lines; type: cell-based, human; conditions: FIG. 5E
# Experimental: as §1, with “USA).” for “USA). To measure ROS levels, treated cells were harvested, stained with 0.5 mM CM-H2DCF-DA (C6827, Molecular Probes, Invitrogen) in PBS for 30 min at 37° C., washed twice with PBS, and analyzed in a flow cytometer (FACS Caliber, BD Biosciences) by recording the green fluorescence of oxidized DCF. The mean fluorescence of 10,000 analyzed cells (corrected for auto fluorescence) was taken as a readout for the intracellular ROS load.”
# To measure ROS levels, treated cells were harvested, stained with […] CM-H2DCF-DA (C6827, Molecular Probes, Invitrogen) in PBS for 30 min at 37° C., washed twice with PBS, and analyzed in a flow cytometer (FACS Caliber, BD Biosciences) by recording the green fluorescence of oxidized DCF. The mean fluorescence of 10,000 analyzed cells (corrected for auto fluorescence) was taken as a readout for the intracellular ROS load.
# [8] = tested on: ibrutinib-resistant (Maver-1 and Z-138) MCL cell lines; test: Intracellular ATP, ibrutinib-resistant MCL cell lines; type: cell-based, human; conditions: 20 nM for 24 hours; 0 nM vs 20 nM p<0.0001; FIG. 11C
# Experimental: as §3
# [9] = tested on: ibrutinib-resistant MCL cell lines, Z-138 and Maver-1; test: Mitochondria respiration (OCR, Seahorse), ibrutinib-resistant MCL cell lines; type: cell-based, human; conditions: 20 nM for 1 h, FIG. 5B
# Experimental: (§4) The oxygen consumption rate (OCR) was measured using a Seahorse XF-96 Metabolic Flux Analyzer (Seahorse Bioscience, North Billerica, Mass., USA). Briefly, MCL cells were treated with/without IACS-010759 (20 nM) for 1 h. On the day of analysis, 2-4×10^5 MCL cells/well were adhered to XF 96-well cell culture microplates (Seahorse Biosciences) pre-coated with Cell-Talc (BD Biosciences), by centrifugation at 1,000×g, without brakes for 5 min, then changed to mitochondria stress medium supplemented with 25 mM glucose, 2 mM sodium pyruvate, and 2 mM glutamine (pH 7.4), followed by incubation at 37° C. in a non-CO2 incubator for 1 h. […], FCCP (2 μM), and Rotenone/Antimycin A (0.5 μM), were loaded into drug delivery ports and injected sequentially at the indicated time points. After each injection, 4 time points were recorded with approximately 35 min between each injection. […] over time was normalized to protein content measured by sulforhodamine B (SRB) staining and plotted using Graph-Pad Prism.
# [10] = tested on: ibrutinib-resistant MCL cell lines (Z-138 and Maver-1); test: Cell growth assay, ibrutinib-resistant MCL cell lines; type: cell-based, human
# Experimental: (§5) Cells were seeded in triplicate in a 96-well plate with 2×10^5 cells per well and treated with indicated dose of single agent or two compound combination for 24-72 hours. In the last 30 min, 50 μL of CellTiter 96 Aqueous One Solution Reagent were added to the culture wells and incubated at 37° C. in 5% CO2. Light absorbance of formazan was measured at 495 nm on a universal microplate reader equipped with KC4 software (Biotek Instruments, Winooski, Vt., USA).
# [11] = tested on: ibrutinib-resistant Z-138 and Maver-1 cell lines; test: Mitochondria membrane potential (TMRE), ibrutinib-resistant MCL cell lines; type: cell-based, human; conditions: 20 nM IACS-010759 and/or 5 μM BPTES for 24 hours; FIGS. 5C & 5D
# Experimental: Mitochondria membrane potential, mitochondria mass, ROS, and apoptosis analysis. MCL cells were seeded and cultured overnight before treatment to reach log phase. Respective cell lines were plated at 2×10^6 cells/well in 6-well plates in phenol-red and pyruvate-free DMEM assay medium containing 5 mM glucose (Sigma), 2 mM GlutaMAX (Gibco, ThermoFisher Scientific), and 5% dialyzed FCS (Gibco). Vehicle, IACS-0107059 (20 nM), or (1-5 μM) BPTES was added and replenished every day until the indicated time points. ROS and mitochondria membrane potential were evaluated 24 hours after treatment. To determine mitochondria membrane potential (Δψm), treated cells were loaded with MitoStatus tetramethylrhodamine, ethyl ester (TMRE) (BD Biosciences) at 37° C. for 15 min and washed with PBS twice to remove residual TMRE. TMRE dye fluorescence retained in the cells was detected by flow cytometry with excitation and emission of 548/574 nm. Data were analyzed with NovoExpress (ACEA Biosciences, San Diego, Calif., USA) or FlowJo10 (Tree Star, Ashland, Oreg., USA).
# [12] = tested on: ibrutinib-sensitive MCL cell line, Mino; test: Mitochondria respiration (OCR, Seahorse), ibrutinib-sensitive Mino; type: cell-based, human; conditions: 20 nM for 1 h, vs control, p=0.0832, FIG. 5B
# Experimental: as §4
# ETC complex I = ETC complex I activity in ibrutinib-resistant MCL cell lines; type: cell-based, human; conditions: Z-138 and Maver-1; 20 nM, 24 hours; FIGS. 11A & 11B
# [13] = tested on: ibrutinib-sensitive MCL cell lines (Mino and JeKo-1); test: Cell growth assay, ibrutinib-sensitive MCL cell lines; type: cell-based, human; conditions: 72-hour incubation, FIG. 5A
# Experimental: as §5
# [14] = tested on: ibrutinib-resistant high-grade B-cell lymphoma PDX
structure (smiles),measurement,setting,value
"NOCC(=O)O [AOA, aminooxyacetate]",ROS and energy stress,"[1]; 0.5 mM AOA for 24 hours, compared with the sensitive cell lines, FIG. 10B",marked induction of reactive oxygen species (ROS) and energy stress
"O=C(Cc1ccccc1)Nc1nnc(CCSCCc2nnc(NC(=O)Cc3ccccc3)s2)s1 [BPTES, bis-2-(5-phenylacetamido-1,3,4-thiadiazol-2-yl)ethyl sulfide]",caspase 7 activation and PARP cleavage,[2],induced caspase 7 activation and PARP cleavage
same,apoptosis,[3],44%
same,apoptosis,[4],25%
Cc1nc(-c2nc(-c3ccc(OC(F)(F)F)cc3)no2)nn1Cc1cccc(N2CCC(S(C)(=O)=O)CC2)c1 [IACS-010759],caspase 7 activation and PARP cleavage,[2],induced caspase 7 activation and PARP cleavage
same,apoptosis,[3],42%
same,toxicities,[5]; 10 mg/kg oral gavage 5 consecutive days/week,No apparent toxicities
same,body weight vs vehicle control,"[5]; 10 mg/kg oral gavage 5 consecutive days/week, p=0.3304, FIG. 6C",not significantly different
same,tumor growth by tumor volume,"[5]; 10 mg/kg oral gavage 5 consecutive days/week, vs vehicle, n=5, p<0.0001, FIG. 6A",completely prevented tumor growth
same,tumor growth by human β2M levels,"[5]; 10 mg/kg oral gavage 5 consecutive days/week, vs vehicle, n=5, p<0.0001, FIG. 6B",completely prevented tumor growth
same,H&E and anti-CD20 staining of dissected tissue post-treatment,"[5]; end of treatment, a small number of CD20+ cells remained, FIG. 6D",repopulation of the tumor area with fatty deposits
same,glutamine uptake inhibition,[6],greater glutamine uptake inhibition
same,apoptosis,[4],23%
same,ROS production,"[1]; Maver-1 and Z-138, IACS-010759 25 nM (text; FIG. 5E legend 20 nM) and/or 5 μM BPTES, 24 hours",induced ROS production
same,ROS production,[7],not in the -sensitive cell lines
same,ATP production (intracellular ATP levels),[8],decreased
same,OCR (oxygen consumption rate),[9]; vs DMSO-treated control,reduced the OCR
same,average reduction of OCR compared with the control,"[9]; mixed effects regression model, p<0.0001",358.9406 (95% CI: 321.1402-396.741)
same,inhibition of proliferation (cell growth inhibition),"[10]; Z-138 and Maver-1, 72-hour incubation, FIG. 5A",dose-dependent manner at nanomolar concentrations
same,difference in IC50 values between the resistant and sensitive cell lines,"[10]; cell growth, 72 h, resistant (Z-138, Maver-1) vs sensitive (Mino, JeKo-1)",approximately 10 fold
same,"mitochondrial potential (Δψm, TMRE)",[11],decreased
same,OCR (oxygen consumption rate),[12],little effect; also recorded: No significant difference
same,ETC complex I activity,ETC complex I,reduced
same,inhibition of proliferation (cell growth inhibition),[13],very little effect
same,body weight vs vehicle,"[14]; 10 mg/kg oral gavage 5 consecutive days/week, p=0.1964, FIG. 12C",not significantly different
same,tumor growth by tumor volume,"[14]; IACS-010759 10 mg/kg 5 days/week (p<0.0001 vs vehicle), ibrutinib 50 mg/kg daily (p=0.7227), oral gavage, FIG. 12A",significantly inhibited tumor growth
same,tumor growth by human (32M levels),"[14]; IACS-010759 10 mg/kg 5 days/week (p=0.0003 vs vehicle), ibrutinib 50 mg/kg daily (p=0.6911), FIG. 12B",significantly inhibited tumor growth
same,survival benefit,"[14]; compared with vehicle- and ibrutinib-treated mice, FIG. 12D",greater than 20 days
same,survival of the ibrutinib-resistant PDX mice,"[14]; n=5, vs vehicle p=0.0035, vs ibrutinib p=0.0035, FIG. 12D",significantly prolonged the survival
